Data from patent US9321767B2, “Azabenzimidazoles as respiratory syncytial virus antiviral agents” (JANSSEN SCIENCES IRELAND UC, priority 2010, dated 2016).

Tests used:
[1] = system: rgRSV224 virus; assay: microbe, parasite or virus in culture; type: cell-based, respiratory syncytial virus (RSV); conditions: human respiratory syncytial virus, HeLa, 72 h, read-out: RSV-wt_EC50
Method: (§1) Black 96-well clear-bottom microtiter plates (Corning, Amsterdam, The Netherlands) were filled in duplicate using a customized robot system with serial 4-fold dilutions of compound in a final volume of 50 μl culture medium [RPMI medium without phenol red, 10% FBS, 0.04% gentamycin (50 mg/mL) and 0.5% DMSO]. Then, 100 μl of a HeLa cell suspension (5×10^4 cells/mL) in culture medium was added to each well followed by the addition of 50 μl rgRSV224 (MOI=0.02) virus in culture medium using a multidrop dispenser (Thermo Scientific, Erembodegem, Belgium). rgRSV224 virus is an engineered virus that includes an additional GFP gene (Hallak et al, 2000) and was in-licensed from the NIH (Bethesda, Md., USA). Medium, virus- and mock-infected controls were included in each test. Cells were incubated at 37° C. in a 5% CO2 atmosphere. Three days post-virus exposure, viral replication was quantified by measuring GFP expression in the cells by a MSM laser microscope (Tibotec, Beerse, Belgium). The EC50 was defined as the 50% inhibitory concentration for GFP expression. In parallel, compounds were incubated for three days in a set of white 96-well microtitier plates (Corning) and the cytotoxicity of compounds in HeLa cells was determined by measuring the ATP content of the cells using the ATPlite kit (PerkinElmer, Zaventem, Belgium) according to the manufacturer's instructions. The CC50 was defined as the 50% concentration for cytotoxicity.

[2] = system: HeLa cells; assay: Cytotoxicity in HeLa cells, ATP content (ATPlite kit); type: cell-based; conditions: HeLa cells, three days incubation, ATP content
Method: as §1

Question: Which EC50 [1] does the source give for `COCCCn1c(Cn2c(=O)n(C3COC3)c3ccncc32)nc2ncccc21` [Compound 12, 3-((1-(3-methoxypropyl)-1H-imidazo[4,5-b]pyridin-2-yl)methyl)-1-(oxetan-3-yl)-1H-imidazo[4,5-c]pyridin-2(3H)-one] here?
Answer: 1940 nM

Question: And the TOX-HELA_EC50 [2]?
Answer: >98.3603 µM

Question: Which results are given for `O=c1n(Cc2nc3c(Cl)nccc3n2CCCCOCc2ccccc2)c2cnccc2n1C1CC1` [Compound 38, 3-((1-(4-benzyloxy)butyl)-4-chloro-1H-imidazo[4,5-c]pyridin-2-yl)methyl-1-cyclopropyl-1H-imidazo[4,5-c]pyridin-2(3H)-one]?
Answer: EC50 [1]: 1480 nM; TOX-HELA_EC50 [2]: >98.3603 µM

Question: How did the EC50 [1] turn out when `O=c1n(Cc2nc3ncccc3n2CCCC(F)(F)F)c2cnccc2n1C1CC1` [Compound 41, 1-cyclopropyl-3-((1-(4,4,4-trifluorobutyl)-1H-imidazo[4,5-b]pyridin-2-yl)methyl)-1H-imidazo[4,5-c]pyridin-2(3H)-one] was run?
Answer: 7.1 nM

Question: What about the TOX-HELA_EC50 [2] of the same molecule?
Answer: >98.3603 µM

Question: `CC(C)CCn1c(Cn2c(=O)n(C3CC3)c3ccncc32)nc2cc(C#N)cnc21` [Compound 27, 2-((1-cyclopropyl-2-oxo-1H-imidazo[4,5-c]pyridin-3(2H)-yl)methyl)-3-isopentyl-3H-imidazo[4,5-b]pyridine-6-carbonitrile] was tested. Which EC50 [1] did it give?
Answer: 34100 nM

Question: And the TOX-HELA_EC50 [2]?
Answer: >98.3603 µM

Question: Which EC50 [1] does the source give for `CN(C)c1nccc2c1nc(Cn1c(=O)n(C3CC3)c3ccncc31)n2CCCCO` [Compound 37] here?
Answer: 274 nM

Question: And the TOX-HELA_EC50 [2]?
Answer: >9.836 µM

Question: `O=c1n(Cc2nc3ncccc3n2CCCF)c2cnccc2n1C1CC1` [Compound 11] was tested. Which EC50 [1] did it give?
Answer: 90.9 nM

Question: And the TOX-HELA_EC50 [2]?
Answer: >9.836 µM

Question: With `CC(C)CCn1c(Cn2c(=O)n(C3CC3)c3ccc(F)cc32)nc2nc(Cl)ccc21` [Compound 6, 3-((5-chloro-1-isopentyl-1H-imidazo[4,5-b]pyridin-2-yl)methyl)-1-cyclopropyl-5-fluoro-1H-benzo[d]imidazol-2(3H)-one] as the molecule, how does the EC50 [1] read?
Answer: 8.67 nM

Question: And the TOX-HELA_EC50 [2]?
Answer: >9.836 µM

Question: Which results are given for `O=c1n(Cc2nc3cc(Cl)cnc3n2CCCCO)c2cnccc2n1C1CC1` [Compound 21, 3-((6-chloro-3-(4-hydroxybutyl)-3H-imidazo[4,5-b]pyridin-2-yl)methyl)-1-cyclopropyl-1H-imidazo[4,5-c]pyridin-2(3H)-one]?
Answer: EC50 [1]: 54.6 nM; TOX-HELA_EC50 [2]: >9.836 µM

Question: How did the EC50 [1] turn out when `CC(C)CCn1c(Cn2c(=O)n(C3COC3)c3ccncc32)nc2cc(Br)cnc21` [Compound 18, 3-((6-bromo-3-isopentyl-3H-imidazo[4,5-b]pyridin-2-yl)methyl)-1-(oxetan-3-yl)-1H-imidazo[4,5-c]pyridin-2(3H)-one] was run?
Answer: 17.3 nM

Question: What about the TOX-HELA_EC50 [2] of the same molecule?
Answer: >9.836 µM
